The record followed here is patent US20230255966A1, “A COMBINATION OF A CBP/P300 BROMODOMAIN INHIBITOR AND AN EGFR INHIBITOR FOR USE IN TREATING EGFR-MUTANT NSCLC” (TOLREMO THERAPEUTICS AG, priority 2020, published 2023).

Assay [1] deals with HCC827 cells. Briefly: Cell counting by nuclear fluorescent staining (Hoechst33342). The assay is classed as cell-based. The following applies: for Effect on cell proliferation as single agent: absence of EGFR inhibitor (FIG. 3 left); for Anti-proliferative activity / re-growth in presence of Gefitinib: in presence of 300 nM Gefitinib (FIG. 3). On the procedure:
Several plates were seeded, as for each time point of cell counting one plate was fixed and stained for analysis. […] Cell cultivation was continued until time of fixation and analysis for each plate. For extended time-points, medium and drugs were replenished twice weekly.
At the given time plates were washed 3 times with PBS and cells fixed with 80 μl 4% PFA for 10 min, RT. After 3 wash steps with PBS cells were stained with 10 μg/ml Hoechst33342 (Thermo Scientific H12492) in 100 μl PBS for 2 h, RT, dark. After 3× PBS washing-steps, Hoechst33342 signals were acquired on in an automated imaging mode using a Zeiss Apotome with motorized X/Y stage and a 5× objective. Image analysis and determination of Hoechst33342 spots (nuclei) was done using ImageJ. Number of nuclei was plotted as function of time using GraphPad Prism.

The test system of assay [2] is HCC827 cells. Nature of the assay: Gene expression analysis (qPCR of ALPP and HOPX). In kind it is cell-based. The following applies: HCC827, 1 μM CBP/p300 inhibitor in presence of Gefitinib, 24 h. On the procedure: (§1) Equal amount of cDNA was then subjected to qPCR analysis using the Kapa SYBR fast kit (KK4611) in a 384 well format in a Roche Light Cycler 480. Gene expression of genes was evaluated by subtraction of housekeeping gene CT-values (b-Actin) from CT of the genes of interest, and by calculating the ΔΔCT by subtracting the DMSO control value from sample of interest to finally calculate fold change differences of treated versus control treated sample.
(§2) Data is from 2 independent experiments with qPCRs in duplicate (mean±SEM) (FIG. 1C-D).

The subject of assay [3] is NCI-H1975 cells. Briefly: Gene expression analysis (qPCR of ALPP and HOPX). In kind it is cell-based. The following applies: 24 h; for EGFR inhibitor induced gene expression (ALPP, HOPX): NCI-H1975, 1 μM CBP/p300 inhibitor in presence of 20 nM osimertinib. The method, then: as §1, §2
In general terms: In qPCR the cycle at which signal appears reflects the starting amount.

Assay [4] concerns HCC827 cells. Briefly: Label-free determination of cell proliferation (CELIGO). In kind it is cell-based. The settings on record: for Development of drug resistance / re-growth: HCC827, combined with 100 nM osimertinib; for Development of drug resistance / re-growth / Effect on cell proliferation on their own: 21 days (FIG. 9); for Effect on cell proliferation on their own: HCC827, single agent (1 μM Compound A, 0.2 μM Compound C, 0.2 μM CCS1477, 1 μM FT-6876, 0.2 μM GNE-781).

Assay [5] deals with NCI-H1975 cells. The description is as above. The assay is classed as cell-based.
For a further assay, the system named is HCC4006 cells. The assay is described as above. The following applies: for Development of drug resistance / re-growth: HCC4006, combined with 100 nM osimertinib; for Development of drug resistance / re-growth / Effect on cell proliferation on their own: 21 days (FIG. 10); for Effect on cell proliferation on their own: HCC4006, single agent (1 μM Compound A, 0.2 μM Compound C, 0.2 μM CCS1477, 1 μM FT-6876, 0.2 μM GNE-781).

For another assay, the system named is NCI-H1975 xenografts. Briefly: NCI-H1975 xenograft tumor growth. The assay is classed as in vivo, NMRI-Nude mice. The settings on record: 2 mg/kg osimertinib alone. On the procedure:
Tumor volume was measured using a manual caliper two to three times a week. The tumor volume was calculated using the formula: lager tumor diameter x square of the smaller tumor diameter divided by 2. Based on a linear fit of the mean tumor volumes the slopes of the curves were compared by regression analysis (two-tailed).
The response was determined by comparing tumor volume change at time t to its baseline: % tumor volume change=ΔVolt=100%×((Vt−Vinitial)/Vinitial). The Best Response was the minimum value of ΔVolt for t≥10 d. For each time t, the average of ΔVolt from t=0 to t was also calculated. The BestAvgResponse is defined as the minimum value of this average for t≥10 d. This metric captures a combination of speed, strength and durability of response into a single value. […] Mice that were sacrificed because of an adverse event before they had completed 14 d on trial were removed from the data set.
The response was determined by comparing tumor volume change at time t to its baseline: % tumor volume change=ΔVolt=100%×((Vt−Vinitial)/Vinitial). The Best Response was the minimum value of ΔVolt for t≥6 d. For each time t, the average of ΔVolt from t=0 to t was also calculated. The BestAvgResponse is defined as the minimum value of this average for t≥10 d. This metric captures a combination of speed, strength and durability of response into a single value. […] Mice that were sacrificed because of an adverse event before they had completed 14 d on trial were removed from the data set.

The mark [6] stands for this setting: NCI-H1975, 50 nM osimertinib alone (FIG. 5).

Read-outs that look alike come from different tables or passages of the source.

Method for HCC4006 cells: 2000 HCC4006 (ATCC; CRL2871) were seeded into 96 well plates (Greiner BioOne 655090) one day prior to drug treatment in RPMI medium containing 10% FCS and 2 mM L-Glutamine. The next day wells were imaged label-free using brightfield imaging on a CELIGO Image Cytometer to determine the initial cell number. Subsequently cells were treated with either DMSO, with single drugs (osimertinib and each of the CBP/p300 bromodomain inhibitors) or drug combinations of 100 nM osimertinib and one CBP/p300 bromodomain inhibitor with drug concentrations given below. Plates were regularly imaged over weeks using brightfield mode (CELIGO Imaging Cytometer) to track cell proliferation in each well over time. Growth medium and treatments were replenished twice weekly. […] Cell numbers were determined using CELIGO software's built-in “direct cell counting” analysis tool in the brightfield mode.

Take `CC(=O)N1C[C@H](c2nc(Nc3ccc4[nH]ncc4c3)cc(-c3cccnc3)n2)CC[C@@H]1C` [Compound 00030]: in the assay with HCC827 cells [1], the “Effect on cell proliferation as single agent” value (“Effect … as single agent” for short) is listed as “absence of an anti-proliferative effect” and the “Anti-proliferative activity / re-growth in presence of Gefitinib” value (“Anti-proliferative activity / re-growth” for short) is given as “potentiate the effect of the EGFR inhibitor”.
For `CNC(=O)Nc1ccc2c(c1)CC[C@@]21OC(=O)N(CC(=O)N(Cc2ccc(F)cc2)[C@@H](C)C(F)(F)F)C1=O` [Compound A-485], the “Effect … as single agent” value in the assay on HCC827 cells [1] was “affect cell proliferation”. Further, the “EGFR inhibitor induced gene expression (ALPP, HOPX)” value with HCC827 cells [2] and in the assay on NCI-H1975 cells [3] was “reverse EGFR inhibitor induced gene expression” throughout.
As for `COc1cncc(-c2cc(Nc3cccc(F)c3)nc([C@@H]3CC[C@H](C)N(C(C)=O)C3)n2)c1` [Compound A], the “Re-growth in long-term cultures” value in the assay with HCC827 cells [4] (HCC827, 300 nM Gefitinib + 1 μM Compound A, >22 days (FIG. 4)) is listed as “significantly delays or completely prevents re-grow”. The “Effect on cell numbers on its own” value in the assay with HCC827 cells [4] (HCC827, 1 μM Compound A alone (FIG. 4)) is on record as “weak/no effect on cell numbers”. For the same compound, the “Development of drug resistance / re-growth” value with HCC827 cells [4] was “prevent the development of drug resistance”. In the assay with HCC827 cells [1] (in combination with 20 nM Gefitinib (FIG. 2A)), the “Re-growth under continuous Gefitinib exposure” value was “Re-growth is inhibited”. For the same compound, the “Anti-proliferative activity / re-growth” value in the assay on HCC827 cells [1] was “potentiate the effect of the EGFR inhibitor”. The Growth long-term entry in the assay on NCI-H1975 cells [5] (NCI-H1975, 50 nM osimertinib with 2.0, 0.5 or 0.125 μM co-treatment (FIG. 5)) is “delayed”. Also, in the assay with NCI-H1975 cells [5] (NCI-H1975, 2 μM single agent (FIG. 5)), the “Effect on cell numbers on their own” value is recorded as “no/weak effect on cell numbers”. In addition, the “EGFR inhibitor induced gene expression (ALPP, HOPX)” value in the assay with HCC827 cells [2] and with NCI-H1975 cells [3] was “reverse EGFR inhibitor induced gene expression” in each case.
As for `COC(=O)N1c2ccc3c(nc(Cc4ccccc4)n3[C@H]3CCC[C@H](C(=O)O)C3)c2CC[C@@H]1C` [FT-6876], in the assay with HCC827 cells [4], the “Development of drug resistance / re-growth” value is on record as “prevent the development of drug resistance” and the “Effect on cell proliferation on their own” value was “do not affect cell proliferation”. In the assay on HCC4006 cells, the “Development of drug resistance / re-growth” value is given as “prevent the development of drug resistance” and the “Effect on cell proliferation on their own” value is on record as “do not affect cell proliferation”.
As to `CNC(=O)N1CCc2c(c(N3CCCc4cc(-c5cnn(C)c5)c(C(F)F)cc43)nn2C2CCOCC2)C1` [GNE-781], the “Development of drug resistance / re-growth” value in the assay on HCC827 cells [4] and in the assay on HCC4006 cells was “prevent the development of drug resistance” throughout. Besides, the “Effect on cell proliferation on their own” value with HCC827 cells [4] and in the assay on HCC4006 cells was “do not affect cell proliferation” in each case.
On to `COc1cc2ncnc(Nc3ccc(F)c(Cl)c3)c2cc1OCCCN1CCOCC1` [Gefitinib], for which, in the assay with HCC4006 cells (HCC4006, 300 nM Gefitinib alone (FIG. 8)), the “Cell proliferation, initial” value is recorded as “initially completely blocks cell proliferation”. Besides, the “Re-growth in long-term cultures” value with HCC4006 cells (HCC4006, 300 nM Gefitinib only (FIG. 8)) is “HCC4006 cells re-grow if treated with Gefitinib only”.
For the compound `O=C1[C@H](Cc2ccc(O)cc2)N2C(=O)CCN(C(=O)NCc3ccccc3)[C@H]2CN1Cc1cccc2ccccc12` [ICG-001], the “EGFR inhibitor induced gene expression (ALPP, HOPX)” value in the assay with HCC827 cells [2] and in the assay on NCI-H1975 cells [3] was “does not blunt EGFR-induced gene expression” in each case.
Regarding `COc1ccc(CCc2nc3cc(-c4c(C)noc4C)ccc3n2C[C@H](C)N2CCOCC2)cc1Cl` [SGC-CBP30], in the assay with HCC827 cells [1], the “Effect … as single agent” value is “do not affect cell proliferation” and the “Anti-proliferative activity / re-growth” value is “potentiate the effect of the EGFR inhibitor”.
As for `C=CC(=O)Nc1cc(Nc2nccc(-c3cn(C)c4ccccc34)n2)c(OC)cc1N(C)CCN(C)C` [osimertinib], the “Cell proliferation, initial” value in the assay on HCC827 cells [4] is on record as “initially blocks cell proliferation”; with HCC4006 cells (HCC4006, 100 nM osimertinib alone (FIG. 10)), “initially blocks cell proliferation”; in the assay with NCI-H1975 cells [5] (setting [6]), “initially blocks cell proliferation”. Besides, the “Re-growth in long-term cultures” value in the assay with HCC827 cells [4] is reported as “HCC827 cells re-grow if treated with osimertinib only”; in the assay on HCC4006 cells (HCC4006, 100 nM osimertinib only (FIG. 10)), “HCC4006 cells re-grow if treated with osimertinib only”. Also, the “Slope of linear regression fit of mean tumor volumes over time” value in the assay on NCI-H1975 xenografts is reported as “+6.4”. The Growth long-term entry in the assay on NCI-H1975 cells [5] (setting [6]) is “cells continue growing with a slow rate”. The “ALPP and HOPX gene expression” value in the assay on NCI-H1975 cells [3] (NCI-H1975, EGFR inhibitor (20 nM osimertinib) alone) was “upregulation of example genes ALPP and HOPX”.
